Measurements reported in patent US20050034189A1, “Chitin oligosaccharide elicitor- and gibberellin-responsive genes in plants, and uses thereof” (National Institute of Agrobiological Sciences, priority 2001, published 2005).

Legend:
[1] = test system: CIGR1 gene and CIGR2 gene; test: Gibberellin responsiveness of CIGR1 and CIGR2 genes in suspension-cultured rice cells, Northern blot hybridization; type: cell-based, rice (Oryza sativa cv. Nipponbare); settings: for induction of CIGR1 and CIGR2 gene expression by gibberellin species: ten-minute treatment of cultured rice cells
Description: (§1) (1) Cultured rice cells: The cultured cells of rice were induced from germinating rice seeds (Oryza sativa cv. Nipponbare) on a N6 agar plate containing 1 ppm 2,4-D (auxin; 2,4-dichlorophenoxyacetic acid). The cells were successively cultured in liquid N6 medium as follows. Once a week, cells of about 1 ml in volume were transferred to 150 ml N6 medium. Every two weeks, sizes of the clusters of cells were reduced by passing through a 20-mesh metallic mesh. Unfiltered cells that were cultured while shaking for four to six days after transferring to a 30-ml medium, were used for Northern blotting's RNA extraction.
(§2) (2) RNA extraction: The extraction of total RNA from cultured cells and green leaves of rice was carried out following the phenol-SDS method. A Polytron homogenizer was used to homogenize tissue in the presence of phenol (about 90% saturated with water) of about tenfold or more volume to the tissue volume, and the same volume of extraction buffer solution (50 mM Tris-HCl pH 9.0, 1% SDS, 50 mM NaCl). The aqueous phase obtained by centrifugation was repeatedly extracted with phenol. The total nucleic acid was precipitated by adding 0.6 volume of isopropanol to the extract and then stirring the mixture. After dissolving the precipitate in water, 0.25 volume of 10 M LiCl was added, and the mixture was cooled on ice. High molecular weight RNA was collected by centrifugation, washed with 70% ethanol, and then dissolved in a small volume of water to be used as an RNA sample.
(3) A method for gibberellin treatment of cultured cells and green leaves: The cultured cells were pre-washed with 2,4-D-free N6 medium several times, and then suspended in the same medium and shaken for two hours at 25° C. Gibberellin (GA3 dissolved in ethanol) was added to make the respective final concentrations and the cells were cultured while shaking for a predetermined time and used for RNA extraction. Nipponbare plants, grown three weeks after seeding, were sprayed with gibberellin. The third and fourth leaves were collected at certain intervals and total RNA was extracted. Elicitor treatment was carried out by directly adding aqueous elicitor solutions to cultured cells of rice.
(4) Hybridization: RNA for the Northern hybridization was denatured by the glyoxal method. 2.7 μl of glyoxal (final concentration, 1 M), 1.6 μl of sodium phosphate (pH 7.0, final concentration, 10 mM), and 8 μl of dimethylsulfoxide (final concentration, 50%) were added to 10 μg of total RNA (3.7 μl). The mixture was kept at 50° C. for one hour and then subjected to electrophoresis in 1.4% agarose (10 mM sodium phosphate, pH 7.0). After electrophoresis, RNA was blotted onto a nylon membrane (Biodyne A) and RNA was fixed onto the membrane by treatment at 80° C. for two hours. Hybridization was carried out in a mixture of 50% formamide, 0.1% SDS, 0.1 mg/ml salmon sperm DNA, 5×SSPE (0.9 M NaCl, 50 mM sodium phosphate, 5 mM EDTA, pH 7.4), and 5× Denhardt's solution (0.1% bovine serum albumin, 0.1% Ficoll, 0.1% polyvinylpyrrolidone) at 42° C. for one day. The membrane was then washed with 0.1×SSC (15 mM NaCl, 1.5 mM sodium citrate) three times for five minutes each at room temperature and twice for 30 minutes each at 65° C. and then exposed on X-ray film.
Therefore, the present inventors examined the gibberellin responsiveness of CIGR1 and CIGR2 genes. Suspension-cultured cells were treated with GA3, which is one of the active-type gibberellins, and changes in the expression of these two genes were analyzed over time. […] To maintain cell division activity, the medium used for culturing plant cells contained 2,4-D, which is one of auxins that are not easily metabolized by plants. It was thought that 2,4-D might suppress the action of gibberellin. Therefore, the cells were pre-washed with 2,4-D-free medium, and after two hours of pre-culture in the same medium, the cells were treated with GA3. […]

[2] = test system: nine plant bioassays; settings: cited from earlier work
[3] = test system: CHRC; settings: cited from earlier work
[4] = test system: CIGR1 gene and CIGR2 gene; test: Expression of CIGR1 and CIGR2 genes in green leaves of rice after GA3 spraying; type: in vivo, rice (Nipponbare); settings: GA3 50 μM sprayed; third and fourth leaves, three weeks after seeding
Description: FIG. 10 depicts photographs representing the expression of CIGR1 gene and CIGR2 gene in green leaves of rice after GA3 treatment. After spraying rice plants with GA3, the third and fourth leaves were sampled at certain intervals. Total RNA extracted from the third and fourth leaves was analyzed by the Northern blot hybridization method.
as §2, with “sample. […]” for “sample.”
Cultured plant cells are thought to be in an undifferentiated state in the presence of auxins. […] Thus, the responses of these two genes to gibberellin were analyzed in green leaves of rice. […]

[5] = test system: CIGR1 gene and CIGR2 gene; test: Effect of inhibitors on induction of CIGR1 and CIGR2 genes by GA3 in cultured rice cells; type: cell-based; settings: inhibitor added ten minutes before; okadaic acid 1 μM, lavendustin A 30 μM, K-252a 20 μM
Description: (§3) FIG. 11 depicts photographs representing the effects of protein kinase inhibitors on elicitor response and gibberellin response. The following compounds were added ten minutes before the treatment with chitin heptamer (GN7) or gibberellin (GA3). (A): the positive control of the elicitor response; (B): okadaic acid (1 μM); (C), lavendustin A (30 μM); (D), K-252a (20 μM).
(§4) In addition, the effects of various inhibitors on the inductions by gibberellin and elicitors of CIGR1 gene and CIGR2 gene in the cultured rice cells were examined. Referring to the results of Kuo et al., cells pretreated with okadaic acid were tested. […] From these observations, protein phosphatase was presumed to be involved in signal transduction from gibberellin to CIGR1 gene and CIGR2 gene in cultured rice cells. Following these experiments, the effects of protein kinase inhibitors were studied.

[6] = test system: CIGR1 gene and CIGR2 gene; test: Effect of inhibitors on induction of CIGR1 and CIGR2 genes by chitin heptamer in cultured rice cells; type: cell-based; settings: inhibitor added ten minutes before; okadaic acid 1 μM, lavendustin A 30 μM, K-252a 20 μM
Description: as §3, §4

[7] = test system: CIGR1 gene and CIGR2 gene; test: Elicitor responsiveness of CIGR1 and CIGR2 genes in cultured rice cells, Northern blot hybridization; type: cell-based, rice (Oryza sativa cv. Nipponbare)
Description: as §1, §2
(3) A method for gibberellin treatment of cultured cells and green leaves: The cultured cells were pre-washed with 2,4-D-free N6 medium several times, and then suspended in the same medium and shaken for two hours at 25° C. […]
Both CIGR1 gene and CIGR2 gene were identified as elicitor responsive genes using DNA microarray analysis. The elicitor responsiveness of these two genes was analyzed using Northern blot hybridization method. […]

[8] = test system: rice; settings: reported; cited from earlier work
[9] = test system: PR1, PR10 and OsDRF1 genes; test: Induction of PR1, PR10 and OsDRF1 genes after DEX treatment of transformed rice, oligoarray and Northern; type: in vivo, rice (Nipponbare); settings: transformed line #7; DEX 30 μM spray
Description: FIG. 12 depicts photographs representing the occurrence of expression induction of PR1, PR10 and OsDRF1 genes on induction of CIGR2 gene expression by DEX using a DEX-inducing type promoter. Transformed rice plants #7 and #9 were spray-treated with DEX or ethanol (EtOH; 0.1% v/v). The amounts of mRNA for each gene were measured using northern blot hybridization after zero, 24, 48 and 72 hours.
Using Agrobacterium methods, the plasmid was introduced into rice (Nipponbare). The derived transformed rice was inbred, and second generation seeds were obtained. Each independent line was spray-treated with dexamethasone (DEX; 30 μM, ethanol solution). Over a time course, total RNAs were extracted by phenol methods from the above ground part of the plant. Northern hybridization was carried out using the cDNA of ^32P-labeled CIGR2 as a probe. […] This line was analyzed using a 60mer oligoarray (Agilent) constructed from a total-length rice cDNA library. As a result, induction of three genes (PR1(AK107926), PR10, and OsDRF1 (Defense Response Gene Family 1; AK100816)) was discovered 48-72 hours after dexamethasone treatment. PR1 and PR10 are known to be involved in disease resistance. […]

[10] = test system: α-amylase; settings: aleurone layer of wheat; cited from earlier work
[11] = ten-minute GA3 treatment, 2,4-D-free medium

## C=C1C[C@]23C[C@@]1(O)CC[C@H]2[C@@]12CC[C@H](O)[C@@](C)(C(=O)O1)[C@H]2[C@@H]3C(=O)O [GA1]
[1]
  induction of CIGR1 and CIGR2 gene expression by gibberellin species: induced the expression of both genes
[2]
  physiological activity type of gibberellin: active type

## C=C1C[C@]23C[C@@]1(O)CC[C@H]2[C@@]12C=C[C@H](O)[C@@](C)(C(=O)O1)[C@H]2[C@@H]3C(=O)O [GA3]
[3]; chromoplasts of cucumber petals
  GA3 concentration required for induction of CHRC by gibberellin: at least 10^−7 M
[3]; cucumber petals
  GA3 concentration up to which CHRC expression level increased approximately linearly: up to 10^−4 M
[4]
  expression of both genes in green leaves after GA3 spraying: very rapid transient expression with a maximum at 30 minutes after spraying
[1]; cells pre-washed and pre-cultured two hours in 2,4-D-free medium
  expression after GA3 treatment: Transient expression with a maximum at ten minutes after treatment
[1]; medium containing 2,4-D, up to three hours after treatment, both genes
  change in the amount of expression after GA3 treatment: no significant change
[1]; [11]
  GA3 concentration at which induction of expression of both genes began to appear: 10^−6 M
  GA3 concentration at which induction reached near saturation: ~10^−4 M
[1]
  induction of CIGR1 and CIGR2 gene expression by gibberellin species: induced the expression of both genes
[2]
  physiological activity type of gibberellin: active type

## C=C1C[C@]23C[C@H]1CC[C@H]2[C@@]12CC[C@H](O)[C@@](C)(C(=O)O1)[C@H]2[C@@H]3C(=O)O [GA4]
[1]
  induction of CIGR1 and CIGR2 gene expression by gibberellin species: induced the expression of both genes
[2]
  physiological activity type of gibberellin: active type

## C=C1C[C@]23C[C@H]1CC[C@H]2[C@]1(C(=O)O)CC[C@H](O)[C@@](C)(C(=O)O)[C@H]1[C@@H]3C(=O)O [GA13]
[1]
  induction of CIGR1 and CIGR2 gene expression by gibberellin species: only active type gibberellins induced the expression
[2]
  physiological activity type of gibberellin: inactive type

## C=C1C[C@]23C[C@@]1(O)CC[C@H]2[C@]1(C(=O)O)CCC[C@@](C)(C(=O)O)[C@H]1[C@@H]3C(=O)O [GA17]
[1]
  induction of CIGR1 and CIGR2 gene expression by gibberellin species: only active type gibberellins induced the expression
[2]
  physiological activity type of gibberellin: inactive type

## O=C(O)c1cc(N(Cc2ccccc2O)Cc2cc(O)ccc2O)ccc1O [Lavendustin A]
[5]
  inhibition of induction of both genes by GA3: almost completely
[6]
  inhibition of induction of both genes by chitin heptamer: hardly inhibited

## CC(=O)N[C@H]1[C@H](O[C@@H]([C@H](O)[C@H](C=O)NC(C)=O)[C@H](O)CO)O[C@H](CO)[C@@H](O[C@@H]2O[C@H](CO)[C@@H](O[C@@H]3O[C@H](CO)[C@@H](O[C@@H]4O[C@H](CO)[C@@H](O[C@@H]5O[C@H](CO)[C@@H](O[C@@H]6O[C@H](CO)[C@@H](O)[C@H](O)[C@H]6NC(C)=O)[C@H](O)[C@H]5NC(C)=O)[C@H](O)[C@H]4NC(C)=O)[C@H](O)[C@H]3NC(C)=O)[C@H](O)[C@H]2NC(C)=O)[C@@H]1O [chitin heptamer, N-acetylchitoheptaose]
[7]
  response (induction of expression) of both genes to chitin oligomers (monomer to heptamer) and chitosan oligomers (tetramer, heptamer): strongest response
[7]; both genes
  time for which expression continued to increase after chitin heptamer treatment: up to 90 minutes
[7]; five minutes after treatment, both genes
  mRNA amount of CIGR1 and CIGR2 genes after treatment with chitin heptamer: Significant increases of mRNA amount
[8]
  elicitor activity in rice depending on oligomer size: strongest effects

## C[C@@H]1C[C@H]2[C@@H]3CCC4=CC(=O)C=C[C@]4(C)[C@@]3(F)[C@@H](O)C[C@]2(C)[C@@]1(O)C(=O)CO [dexamethasone]
[9]
  time after dexamethasone treatment at which induction of PR1, PR10 and OsDRF1 was discovered: 48 to 72 h

## C=C1[C@@H](O)[C@@H]2O[C@]3(CC[C@H](/C=C/[C@@H](C)[C@@H]4CC(C)=C[C@@]5(O[C@H](C[C@@](C)(O)C(=O)O)CC[C@H]5O)O4)O3)CC[C@H]2O[C@@H]1[C@@H](O)C[C@H](C)[C@H]1O[C@@]2(CCCCO2)CC[C@H]1C [okadaic acid]
[10]
  inhibition of gibberellin induction of α-amylase: specifically inhibited
[5]
  inhibition of induction of both genes by GA3: inhibited almost completely
[6]
  inhibition of induction of both genes by chitin heptamer: hardly inhibited
